Source: article PMC8541353, “A Novel Phenylpyrrolidine Derivative: Synthesis and Effect on Cognitive Functions in Rats with Experimental Ishemic Stroke” (Molecules, 2021)

Tests used:
rats with MCAO [1] = assay: Hole-board test (HBT) after MCAO; type: in vivo, Wistar rats
Procedure: (§1) A MCAO animal model was used to characterize the effects of compound 1 on the development and resolution of stroke. At the baseline, we performed the MRI and hole-board test before MCAO surgery. Once animals recovered after the surgery, we stratified them based on their background psycho-emotional status and performed a control MRI to access whether the occlusion was sufficient or not. […] From 24 h to day 7, the neurological status was assessed daily according to the neurological scale (mNSS). By the end of day 7, animals underwent MRI. In addition, MRI was performed on days 14 and 28 (Shceme 3)The hole-board test was repeated on days 10 and 24. The degree of motor function impairment, the deficit of exploratory behavior, and the recovery process were assessed in the beam walking test (BWT), which was performed twice on days 12 and 14. An open field test was carried out on days 16 and 26.
(§2) In the first experimental series, the following test systems were used: HBT (OpenScience, Russia), OFT (OpenScience), and LDT (OpenScience). The design for the second experimental series was as follows. All rat behavioral changes were evaluated during the four weeks after stroke simulation. […] General neurological disorders were assessed using the modified neurological severity score (mNSS). Motor and cognitive impairment were evaluated using the following functional tests: BWT (OpenScience), HBT (OpenScience), and OFT (OpenScience). […] In this test, motor dysfunction in all four limbs was evaluated; specifically, the number of steps, errors, and slides were counted. The overall score was calculated using the following formula: score = errors + 0.5 × slides × 100/total number of steps [47]. […]
(§3) The HBT was performed on postoperative days 10 and 24. In this test, the following parameters were assessed: orientational and motor activity (horizontal activity, arbitrary units: number of crossings; vertical activity, arbitrary units: number of head dips), anxiety level (immobility and grooming time and number of grooming and immobility events), and the number of central sector crossings. […]

rats with MCAO [2] = assay: Open field test (OFT) after MCAO; type: in vivo, Wistar rats
Procedure: as §1, §2, §3

SMILES: O=C(CN1CC(c2ccccc2)CC1=O)NCCS(=O)(=O)[O-].[K+] (stereo not drawn) [Compound 1, potassium 2-[2-(2-oxo-4-phenylpyrrolidin-1-yl)acetamido]ethane-1-sulfonate]
- Orientational activity (HBT) (rats with MCAO [1]; day 10): escalation
- Freezing time (HBT) (rats with MCAO [1]; days 10 and 24): decreased
- Total locomotor activity (HBT) (rats with MCAO [1]; days 10 and 24): significantly increased
- Locomotor activity (OFT) (rats with MCAO [2]): higher
- Immobility time (OFT) compared to the saline and piracetam groups (rats with MCAO [2]; day 16): lower
- Number of crossed areas (OFT) (rats with MCAO [2]; day 16): statistically significant increase
